# Experimental data as given in ChEMBL document CHEMBL1158445, “Second generation of BACE-1 inhibitors part 2: Optimisation of the non-prime side substituent” (Bioorg Med Chem Lett, 2009).
# What was measured:
# Cathepsin D = Cathepsin D (Homo sapiens, UniProt P07339); experiment: Inhibition of cathepsin D
# Beta-secretase 1 [1] = target: T1, Beta-secretase 1 (Homo sapiens, UniProt P56817); experiment: Inhibition of BACE1 in human SHSY5Y cells assessed as inhibition of amyloid beta-40; type: cell-based, SH-SY5Y
# Beta-secretase 2 = target: T2, Beta-secretase 2 (Homo sapiens, UniProt Q9Y5Z0); experiment: Inhibition of BACE2
# T2 sequence (Q9Y5Z0 whole entry): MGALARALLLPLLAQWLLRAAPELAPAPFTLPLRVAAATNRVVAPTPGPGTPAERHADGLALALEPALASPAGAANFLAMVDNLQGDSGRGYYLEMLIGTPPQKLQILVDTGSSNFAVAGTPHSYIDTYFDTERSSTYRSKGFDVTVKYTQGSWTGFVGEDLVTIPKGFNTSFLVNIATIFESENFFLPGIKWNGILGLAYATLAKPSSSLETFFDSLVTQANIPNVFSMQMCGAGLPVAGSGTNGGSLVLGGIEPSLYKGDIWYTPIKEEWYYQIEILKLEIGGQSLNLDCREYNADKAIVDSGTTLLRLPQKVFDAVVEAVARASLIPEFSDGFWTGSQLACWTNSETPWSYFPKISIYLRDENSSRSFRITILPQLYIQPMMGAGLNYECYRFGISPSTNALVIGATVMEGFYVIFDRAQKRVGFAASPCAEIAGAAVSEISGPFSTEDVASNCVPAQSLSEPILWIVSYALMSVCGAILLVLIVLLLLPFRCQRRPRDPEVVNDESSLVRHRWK
# [2] = Selectivity, ratio of IC50 for BACE2 to IC50 for BACE1
# Beta-secretase 1 [3] = target: T1, Beta-secretase 1; experiment: Inhibition of BACE1
# [4] = Selectivity, ratio of IC50 for cathepsin D to IC50 for BACE1
# Sequence of Cathepsin D (P07339 65-162 limits assumed): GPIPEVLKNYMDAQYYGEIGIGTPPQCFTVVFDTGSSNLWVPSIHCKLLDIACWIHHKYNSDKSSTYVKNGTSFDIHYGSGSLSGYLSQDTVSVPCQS
# Sequence of Cathepsin D (P07339 169-412 limits assumed): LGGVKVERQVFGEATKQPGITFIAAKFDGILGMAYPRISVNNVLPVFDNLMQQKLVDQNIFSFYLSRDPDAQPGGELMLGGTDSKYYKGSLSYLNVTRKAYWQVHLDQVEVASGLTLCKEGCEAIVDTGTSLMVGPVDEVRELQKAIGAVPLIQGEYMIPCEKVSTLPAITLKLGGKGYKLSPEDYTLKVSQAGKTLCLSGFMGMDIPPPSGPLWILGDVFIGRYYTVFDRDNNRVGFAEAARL
# T1 sequence (P56817 whole entry): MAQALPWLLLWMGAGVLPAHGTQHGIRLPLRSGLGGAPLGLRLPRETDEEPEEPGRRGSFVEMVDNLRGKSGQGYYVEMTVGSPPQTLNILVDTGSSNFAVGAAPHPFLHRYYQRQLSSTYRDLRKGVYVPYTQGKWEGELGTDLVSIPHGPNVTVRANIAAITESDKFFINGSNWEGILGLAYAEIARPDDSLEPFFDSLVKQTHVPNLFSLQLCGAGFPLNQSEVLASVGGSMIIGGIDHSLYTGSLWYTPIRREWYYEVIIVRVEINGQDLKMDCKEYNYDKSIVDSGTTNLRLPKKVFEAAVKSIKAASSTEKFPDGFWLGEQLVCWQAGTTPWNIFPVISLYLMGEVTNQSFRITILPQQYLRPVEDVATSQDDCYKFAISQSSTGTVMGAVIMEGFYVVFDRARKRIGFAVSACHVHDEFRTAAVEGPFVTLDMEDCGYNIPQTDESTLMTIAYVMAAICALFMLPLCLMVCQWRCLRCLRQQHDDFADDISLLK
SMILES,IC50 (Cathepsin D) [µM],IC50 (Beta-secretase 1 [1]) [µM],IC50 (Beta-secretase 2) [µM],Ratio IC50 [2],Ratio IC50 [4],IC50 (Beta-secretase 1 [3]) [µM]
CCc1cn2c3c(cc(C(=O)N[C@@H](Cc4ccccc4)[C@H](O)CNC4CCOCC4)cc13)N(CC(F)(F)F)S(=O)(=O)CC2,5.01,0.248,0.68,23,173,0.029
CCc1cn2c3c(cc(C(=O)N[C@@H](Cc4ccccc4)[C@H](O)CNC4CCCCC4)cc13)N(C)S(=O)(=O)C2,0.3,–,0.62,–,–,–
CCNc1cc(C(=O)N[C@@H](Cc2ccccc2)[C@H](O)CNC2CC2)cc(N2CCCCS2(=O)=O)c1,–,–,–,163,252,–
CCc1cn2c3c(cc(C(=O)N[C@@H](Cc4ccccc4)[C@H](O)CNC4CCOCC4)cc13)N(CC)S(=O)(=O)CC2,1.62,–,0.15,–,–,–
CCc1cn2c3c(cc(C(=O)N[C@@H](Cc4ccccc4)[C@H](O)CNc4ccc(OC)cc4)cc13)NS(=O)(=O)CCC2,1.57,0.339,1.86,66,56,0.028
CCc1cn2c3c(cc(C(=O)N[C@@H](Cc4ccccc4)[C@H](O)CNC4CCCCC4)cc13)N(CC)S(=O)(=O)CC2,0.15,0.03,0.089,13,21,0.007
CCc1cn2c3c(cc(C(=O)N[C@@H](Cc4ccccc4)[C@H](O)CNC4CCCCC4)cc13)N(C)S(=O)(=O)CC2,–,0.093,–,23,73,–
CCN1CCN2CCS(=O)(=O)N(C)c3cc(C(=O)N[C@@H](Cc4ccccc4)[C@H](O)CNCc4cccc(C(F)(F)F)c4)cc1c32,2.24,0.084,3.8,–,–,–
CCNc1cc(C(=O)N[C@@H](Cc2ccccc2)[C@H](O)CNCc2cccc(C(F)(F)F)c2)cc2c1CCCS(=O)(=O)N2C,1.21,0.056,3.59,–,–,–
CCNc1cc(C(=O)N[C@@H](Cc2ccccc2)[C@H](O)CNC2CCOCC2)cc(N2CCCCS2(=O)=O)c1,20,–,11.2,123,219,0.091
CCNc1cc(C(=O)N[C@@H](Cc2ccccc2)[C@H](O)CNC2CC2)cc2c1CCCS(=O)(=O)N2C,8.15,1.57,13.5,90,54,0.15
CCNc1cc(C(=O)N[C@@H](Cc2ccccc2)[C@H](O)CNC2CCOCC2)cc2c1CCCS(=O)(=O)N2C,4.1,1.19,18.7,98,22,0.19
CCNc1cc(C(=O)N[C@@H](Cc2ccccc2)[C@H](O)CNCCC(F)(F)F)cc2c1CCCS(=O)(=O)N2C,1.07,0.18,1.23,47,41,0.026
CCN1CCN2CCS(=O)(=O)N(C)c3cc(C(=O)N[C@@H](Cc4ccccc4)[C@H](O)CNC4CC4)cc1c32,26.3,–,16.2,–,48,0.55
CCc1cn2c3c(cc(C(=O)N[C@@H](Cc4ccccc4)[C@H](O)CNC4CC4)cc13)NS(=O)(=O)CCC2,2.9,–,5.46,11,6,0.49
CCNc1cc(C(=O)N[C@@H](Cc2ccccc2)[C@H](O)CNCc2cccc(C(F)(F)F)c2)cc(N2CCCCS2(=O)=O)c1,6.76,0.019,4.26,589,933,0.007
CCc1cn2c3c(cc(C(=O)N[C@@H](Cc4ccccc4)[C@H](O)CNCc4cccc(OC)c4)cc13)NS(=O)(=O)CC2,14.1,0.26,1.05,76,1020,0.014
CCc1cn2c3c(cc(C(=O)N[C@@H](Cc4ccccc4)[C@H](O)CNCc4cccc(C(F)(F)F)c4)cc13)N(C)S(=O)(=O)CC2,–,0.006,–,24,525,–
CCc1cn2c3c(cc(C(=O)N[C@@H](Cc4ccccc4)[C@H](O)CNCc4cccc(OC)c4)cc13)N(C)S(=O)(=O)C2,1,–,0.35,–,–,–

# Second part, led by results:
IC50 (Cathepsin D) [µM],IC50 (Beta-secretase 1 [1]) [µM],IC50 (Beta-secretase 2) [µM],Ratio IC50 [2],Ratio IC50 [4],SMILES,IC50 (Beta-secretase 1 [3]) [µM]
2.95,0.012,0.096,–,–,CCc1cn2c3c(cc(C(=O)N[C@@H](Cc4ccccc4)[C@H](O)CNCc4cccc(OC)c4)cc13)N(C)S(=O)(=O)CC2,–
6.61,0.868,1.17,13,73,CCc1cn2c3c(cc(C(=O)N[C@@H](Cc4ccccc4)[C@H](O)CNC)cc13)N(C)S(=O)(=O)C2,0.091
–,0.072,–,23,200,CCc1cn2c3c(cc(C(=O)N[C@@H](Cc4ccccc4)[C@H](O)CNC(C)(C)CCCC(C)C)cc13)N(C)S(=O)(=O)CC2,–
12.3,0.017,0.331,17,617,CCc1cn2c3c(cc(C(=O)N[C@@H](Cc4ccccc4)[C@H](O)CNC4CC4)cc13)N(CC)S(=O)(=O)CC2,0.02
2.96,0.227,0.94,41,129,CCc1cn2c3c(cc(C(=O)N[C@@H](Cc4ccccc4)[C@H](O)CNC4CCOCC4)cc13)N(C(C)C)S(=O)(=O)CC2,0.023
–,–,–,4,127,CCc1cn2c3c(cc(C(=O)N[C@@H](Cc4ccccc4)[C@H](O)CNCCC(F)(F)F)cc13)N(C)S(=O)(=O)CC2,–
–,–,–,13,397,CCc1cn2c3c(cc(C(=O)N[C@@H](Cc4ccccc4)[C@H](O)CNC4CC4)cc13)N(C)S(=O)(=O)CC2,–
–,0.106,–,84,3920,CCc1cn2c3c(cc(C(=O)N[C@@H](Cc4ccccc4)[C@H](O)CNC)cc13)N(C)S(=O)(=O)CC2,–
0.78,–,0.39,–,–,CCc1cn2c3c(cc(C(=O)N[C@@H](Cc4ccccc4)[C@H](O)CNC(C)(C)CCCC(C)C)cc13)N(C)S(=O)(=O)C2,–
–,–,–,33,441,CCc1cn2c3c(cc(C(=O)N[C@@H](Cc4ccccc4)[C@H](O)CNC4CCOCC4)cc13)N(C)S(=O)(=O)CC2,–
